Columns and labels:
Assay type in all cases: cell-based, human
BxPC-3 cells = test: XTT cell proliferation assay, BxPC-3
Procedure: (§1) Human PDAC (AsPC-1, BxPC-3, Panc-1 scr, Panc-1 p53-R273H knock-out (KO) hTERT-HPNE), breast (MCF-7), lung (A549), and colon (HT-29) cancer cell lines were purchased from the American Type Culture Collection (ATCC). The MCF-7, A549, Panc-1 scr, Panc-1 p53 KO and HT-29 cell lines were grown in Dulbecco's Modified Eagle Medium (DMEM; Biological Industries, Beit HaEmek (BI), Israel), and the BxPC-3 and AsPC-1 cell lines were cultured in Roswell Park Memorial Institute-1640 (RPMI-1640; BI, Israel) medium. All media was supplemented with 10% fetal bovine serum (FBS), 200 μM L-glutamine (BI), and 1% penicillin-streptomycin (BI). Cells were cultured at 37° C. in a 5% CO2 humidified incubator.
(§2) Eravacycline dihydrochloride (MedChem Express (MCE)) was dissolved in […] (DDW). Tigecycline (MCE) and omadacycline (MCE) were dissolved in dimethyl sulphoxide (DMSO). All drugs were prepared as 100 mM stock solutions. All cell lines were treated with DMSO as a control (less than 0.1%) or tigecycline, omadacycline, or eravacycline (at the indicated concentrations) for 72 hours. Cell viability and proliferation were determined using the XTT Cell Proliferation Assay Kit (Promega).
(§3) The XTT Cell Proliferation Assay Kit was used to determine cell viability and proliferation. Cells were seeded in 96-well plates at a density of 4,000 cells per well and allowed to attach overnight in a 5% CO2 incubator at 37° C. After overnight incubation, cells were treated with culture medium or in a medium containing tigecycline, omadacycline, or eravacycline at different concentrations (1, 2, 5, 10, 25, and 50 μM) for the indicated time period. Then, 50 μl XTT reaction solution (0.1 ml activation solution+5 ml XTT reagent solution) was added to each well, and the plate was incubated at 37° C. for two hours. After shaking the plate gently to distribute the dye in the wells, the absorbance was measured with a spectrophotometer (Bio-RadiMark Microplate Absorbance reader) at a wavelength of 450 nm and a reference wavelength of 655 nm.
(§4) To evaluate the half maximal inhibitory concentration (IC50) of tetracycline derivatives on five different cell lines (MCF-7, A549, HT-29, BxPC-3, and AsPC-1), the cells were seeded and allowed to attach overnight. All cells were washed with phosphate buffered saline (PBS) and then cultured in fresh media containing the drugs tigecycline, omadacycline, or eravacycline at an increasing concentration (0-50 μM) for 72 h. Inhibition of cell proliferation was determined using the XTT Cell Proliferation Assay Kit.
(§5) To investigate the effect of tetracycline derivatives on cell proliferation in human breast, lung, colon, and PDAC cells, the inventors treated all cell lines (MCF-7, A549, HT-29, BxPC-3, and AsPC-1) with different concentrations of tigecycline, omadacycline, and eravacycline (1, 2, 5, 10, 25, and 50 μM), with medium used as a control, for 72 h. Then, an XTT assay was performed to determine the growth inhibition rate.

POLK = test: Western blot of POLK protein expression in BxPC-3 cells; details: BxPC-3, 72 h, increasing concentrations
p53 (mutated in BxPC-3) = test: Western blot of p53 protein expression in BxPC-3 cells; details: BxPC-3, 72 h, increasing concentrations
AsPC-1 cells = test: XTT cell proliferation assay, AsPC-1
Procedure: as §1, §2, §3, §4, §5

MCF-7 cells = test: XTT cell proliferation assay, MCF-7; details: MCF-7, 72 h, 1-50 μM
Procedure: as §1, §2
(§6) The XTT Cell Proliferation Assay Kit was used to determine cell viability and proliferation. Cells were seeded in 96-well plates at a density of 4,000 cells per well and allowed to attach overnight in a 5% CO2 incubator at 37° C. […] After shaking the plate gently to distribute the dye in the wells, the absorbance was measured with a spectrophotometer (Bio-RadiMark Microplate Absorbance reader) at a wavelength of 450 nm and a reference wavelength of 655 nm.
(§7) To evaluate the half maximal inhibitory concentration (IC50) of tetracycline derivatives on five different cell lines (MCF-7, A549, HT-29, BxPC-3, and AsPC-1), the cells were seeded and allowed to attach overnight. […] Inhibition of cell proliferation was determined using the XTT Cell Proliferation Assay Kit. […]

A549 cells = test: XTT cell proliferation assay, A549; details: A549, 72 h, 1-50 μM
Procedure: as §1, §2, §6, §7

HT-29 cells = test: XTT cell proliferation assay, HT-29; details: HT-29, 72 h, 1-50 μM
Procedure: as §1, §2, §6, §7

COc1cccc2c1C(=O)c1c(O)c3c(c(O)c1C2=O)C[C@@](O)(C(=O)CO)C[C@@H]3O[C@H]1C[C@H](N)[C@H](O)[C@H](C)O1 [doxorubicin]
decrease in cell growth (BxPC-3 cells; BxPC-3, 1 μM, 72 h): 67%
decrease in cell growth (BxPC-3 cells; BxPC-3, 10 μM, 72 h): 94%
POLK protein expression vs control (POLK): Neither gemcitabine nor doxorubicin reduced
p53 protein expression vs control (p53 (mutated in BxPC-3)): Neither gemcitabine nor doxorubicin reduced

Nc1ccn([C@@H]2O[C@H](CO)[C@@H](O)C2(F)F)c(=O)n1 [gemcitabine]
decrease in cell growth (BxPC-3 cells; BxPC-3, 1 μM, 72 h): 77%
decrease in cell growth (BxPC-3 cells; BxPC-3, 10 μM, 72 h): 80%
POLK protein expression vs control (POLK): Neither gemcitabine nor doxorubicin reduced
p53 protein expression vs control (p53 (mutated in BxPC-3)): Neither gemcitabine nor doxorubicin reduced

CN(C)c1cc(CNCC(C)(C)C)c(O)c2c1C[C@H]1C[C@H]3[C@H](N(C)C)C(O)=C(C(N)=O)C(=O)[C@@]3(O)C(O)=C1C2=O [omadacycline]
effect on cell survival / viability (in words) (BxPC-3 cells; BxPC-3, 72 h, 1-50 μM): no significant effect on cell survival
effect on cell survival / viability (in words) (AsPC-1 cells; AsPC-1, 72 h, 1-50 μM): no significant effect on cell survival
effect on cell survival / proliferation (in words) (MCF-7 cells): no significant effect on cell survival
effect on cell survival / proliferation (in words) (A549 cells): no significant effect on cell survival
effect on cell survival / proliferation (in words) (HT-29 cells): no significant effect on cell survival

CN(C)c1cc(NC(=O)CNC(C)(C)C)c(O)c2c1C[C@H]1C[C@H]3[C@H](N(C)C)C(O)=C(C(N)=O)C(=O)[C@@]3(O)C(O)=C1C2=O [tigecycline]
suppression of proliferation, up to (BxPC-3 cells; BxPC-3, 72 h, concentration-dependent, 1-50 μM): 60-65%
cytotoxicity at 25 µM (BxPC-3 cells; Homo sapiens, BXPC-3, 72 h, BxPC-3, 25 μM, 72 h, read-out: decrease in cell growth / viability): 60%
IC50 (BxPC-3 cells; Homo sapiens, BXPC-3, 72 h, read-out: IC50, inhibition of cell proliferation): 9.9 µM
suppression of proliferation, up to (AsPC-1 cells; AsPC-1, 72 h, concentration-dependent, 1-50 μM): 60-65%
IC50 (AsPC-1 cells; Homo sapiens, ASPC1, 72 h, read-out: IC50, inhibition of cell proliferation): 4.58 µM
effect on cell survival / proliferation (in words) (MCF-7 cells): no significant effect
suppression of proliferation, up to (A549 cells; concentration-dependent): 60-65%
effect on cell survival / proliferation (in words) (HT-29 cells): no significant effect
